Test results as given in the NIST ThermoML archive (doi:10.1016/j.fluid.2019.112274).
± gives the expanded uncertainty stated by the source.

Conditions: Liquid; for speed of sound: Brillouin light scattering; for thermal diffusivity: Dynamic light scattering

Compound: CCCCCCCCCC(=O)OCC [ethyl decanoate]
- speed of sound (419.73 K, 7000 kPa): 932.2 ± 11 m/s
- speed of sound (423.29 K, 10000 kPa): 949.4 ± 11 m/s
- thermal diffusivity (429.05 K, 5000 kPa): 6.58e-08 ± 2e-09 m2/s
- thermal diffusivity (429.1 K, 3000 kPa): 6.5e-08 ± 2e-09 m2/s
- thermal diffusivity (429.14 K, 100 kPa): 6.39e-08 ± 2e-09 m2/s
- thermal diffusivity (429.25 K, 10000 kPa): 6.78e-08 ± 2.1e-09 m2/s
- speed of sound (429.56 K, 100 kPa): 839.8 ± 10 m/s
- speed of sound (429.56 K, 3000 kPa): 868.5 ± 10 m/s
- speed of sound (429.6 K, 5000 kPa): 884.8 ± 11 m/s
- speed of sound (430.45 K, 7000 kPa): 901.1 ± 11 m/s
- speed of sound (432.01 K, 10000 kPa): 925 ± 11 m/s
- speed of sound (439.2 K, 10000 kPa): 903.9 ± 11 m/s
- speed of sound (439.28 K, 100 kPa): 809.5 ± 9.8 m/s
- speed of sound (439.85 K, 3000 kPa): 836.6 ± 10 m/s
- speed of sound (440.02 K, 5000 kPa): 854.6 ± 10 m/s
- speed of sound (440.37 K, 7000 kPa): 871.6 ± 10 m/s
- thermal diffusivity (444.19 K, 100 kPa): 6.21e-08 ± 1.9e-09 m2/s
- thermal diffusivity (444.35 K, 5000 kPa): 6.4e-08 ± 2e-09 m2/s
- thermal diffusivity (444.38 K, 3000 kPa): 6.32e-08 ± 2e-09 m2/s
- thermal diffusivity (444.46 K, 10000 kPa): 6.59e-08 ± 2e-09 m2/s
- speed of sound (448.51 K, 10000 kPa): 878.1 ± 11 m/s
- speed of sound (449.52 K, 7000 kPa): 845.4 ± 10 m/s
- speed of sound (450.25 K, 3000 kPa): 805.8 ± 9.7 m/s
- speed of sound (450.25 K, 5000 kPa): 825.6 ± 9.9 m/s
- speed of sound (451.03 K, 100 kPa): 773.3 ± 9.3 m/s
- speed of sound (458.86 K, 5000 kPa): 801.3 ± 9.7 m/s
- thermal diffusivity (459.76 K, 100 kPa): 5.97e-08 ± 1.9e-09 m2/s
- speed of sound (459.85 K, 3000 kPa): 778.6 ± 9.4 m/s
- thermal diffusivity (459.9 K, 3000 kPa): 6.09e-08 ± 1.9e-09 m2/s
- thermal diffusivity (460 K, 10000 kPa): 6.34e-08 ± 2e-09 m2/s
- thermal diffusivity (460.01 K, 7000 kPa): 6.23e-08 ± 1.9e-09 m2/s
- speed of sound (460.11 K, 100 kPa): 746.8 ± 9 m/s
- thermal diffusivity (460.12 K, 5000 kPa): 6.16e-08 ± 1.9e-09 m2/s
- speed of sound (460.2 K, 7000 kPa): 816 ± 9.8 m/s
- speed of sound (463.71 K, 10000 kPa): 837.3 ± 10 m/s
- speed of sound (469.25 K, 3000 kPa): 752.4 ± 9.1 m/s
- speed of sound (469.28 K, 5000 kPa): 771.9 ± 9.3 m/s
- speed of sound (469.32 K, 7000 kPa): 792 ± 9.5 m/s
- speed of sound (469.45 K, 100 kPa): 719.5 ± 8.7 m/s
- speed of sound (470.42 K, 10000 kPa): 819.1 ± 9.9 m/s
- thermal diffusivity (475.26 K, 3000 kPa): 5.84e-08 ± 1.8e-09 m2/s
- thermal diffusivity (475.27 K, 100 kPa): 5.74e-08 ± 1.8e-09 m2/s
- thermal diffusivity (475.31 K, 7000 kPa): 5.99e-08 ± 1.9e-09 m2/s
- thermal diffusivity (475.31 K, 10000 kPa): 6.1e-08 ± 1.9e-09 m2/s
- thermal diffusivity (475.35 K, 5000 kPa): 5.92e-08 ± 1.9e-09 m2/s
- speed of sound (479.25 K, 100 kPa): 691.6 ± 8.3 m/s
- speed of sound (479.29 K, 3000 kPa): 724.5 ± 8.7 m/s
- speed of sound (479.47 K, 7000 kPa): 764.5 ± 9.2 m/s
- speed of sound (479.9 K, 5000 kPa): 743.2 ± 9 m/s
- speed of sound (481.5 K, 10000 kPa): 791.1 ± 9.5 m/s
- speed of sound (488.69 K, 7000 kPa): 740.9 ± 8.9 m/s
- thermal diffusivity (489.53 K, 3000 kPa): 5.62e-08 ± 1.8e-09 m2/s
- thermal diffusivity (489.54 K, 5000 kPa): 5.69e-08 ± 1.8e-09 m2/s
- thermal diffusivity (489.54 K, 7000 kPa): 5.76e-08 ± 1.8e-09 m2/s
- thermal diffusivity (489.54 K, 10000 kPa): 5.87e-08 ± 1.8e-09 m2/s
- thermal diffusivity (489.57 K, 100 kPa): 5.52e-08 ± 1.7e-09 m2/s
- speed of sound (490.41 K, 5000 kPa): 715.7 ± 8.6 m/s
- speed of sound (490.81 K, 3000 kPa): 693.8 ± 8.4 m/s
- speed of sound (492.02 K, 10000 kPa): 764.5 ± 9.2 m/s
- speed of sound (499.48 K, 10000 kPa): 745.9 ± 9 m/s
- speed of sound (500.41 K, 5000 kPa): 690.3 ± 8.3 m/s
- speed of sound (500.55 K, 7000 kPa): 711.6 ± 8.6 m/s
- speed of sound (500.76 K, 3000 kPa): 667.8 ± 8.1 m/s
- thermal diffusivity (504.58 K, 5000 kPa): 5.45e-08 ± 1.7e-09 m2/s
- thermal diffusivity (504.77 K, 7000 kPa): 5.52e-08 ± 1.7e-09 m2/s
- thermal diffusivity (504.79 K, 3000 kPa): 5.39e-08 ± 1.7e-09 m2/s
- thermal diffusivity (504.94 K, 10000 kPa): 5.62e-08 ± 1.8e-09 m2/s
- thermal diffusivity (505.38 K, 100 kPa): 5.28e-08 ± 1.7e-09 m2/s
- speed of sound (509.33 K, 10000 kPa): 722.7 ± 8.7 m/s
- speed of sound (510.27 K, 5000 kPa): 666.3 ± 8 m/s
- speed of sound (510.41 K, 7000 kPa): 686.9 ± 8.3 m/s
- speed of sound (510.65 K, 3000 kPa): 642.8 ± 7.8 m/s
- thermal diffusivity (519.26 K, 3000 kPa): 5.2e-08 ± 1.7e-09 m2/s
- thermal diffusivity (519.36 K, 5000 kPa): 5.26e-08 ± 1.7e-09 m2/s
- thermal diffusivity (519.41 K, 7000 kPa): 5.33e-08 ± 1.7e-09 m2/s
- thermal diffusivity (519.6 K, 10000 kPa): 5.43e-08 ± 1.7e-09 m2/s
- speed of sound (520.04 K, 10000 kPa): 696.8 ± 8.4 m/s
- speed of sound (520.19 K, 3000 kPa): 619.7 ± 7.5 m/s
- speed of sound (520.25 K, 5000 kPa): 642.5 ± 7.8 m/s
- speed of sound (520.27 K, 7000 kPa): 664.6 ± 8 m/s
- speed of sound (529.04 K, 10000 kPa): 678 ± 8.2 m/s
- speed of sound (529.91 K, 5000 kPa): 619.5 ± 7.5 m/s
- speed of sound (530.11 K, 7000 kPa): 641.3 ± 7.7 m/s
- speed of sound (530.36 K, 3000 kPa): 595.4 ± 7.2 m/s
- thermal diffusivity (534.46 K, 5000 kPa): 5.06e-08 ± 1.6e-09 m2/s
- thermal diffusivity (534.75 K, 7000 kPa): 5.12e-08 ± 1.6e-09 m2/s
- thermal diffusivity (534.77 K, 3000 kPa): 5e-08 ± 1.6e-09 m2/s
- thermal diffusivity (535.01 K, 10000 kPa): 5.22e-08 ± 1.7e-09 m2/s
- speed of sound (540.06 K, 7000 kPa): 618.1 ± 7.5 m/s
- speed of sound (540.09 K, 10000 kPa): 651.8 ± 7.9 m/s
- speed of sound (540.12 K, 5000 kPa): 595.3 ± 7.2 m/s
- speed of sound (540.66 K, 3000 kPa): 570.8 ± 6.9 m/s
- speed of sound (548.94 K, 3000 kPa): 551.9 ± 6.7 m/s
- speed of sound (549.74 K, 5000 kPa): 574.5 ± 7 m/s
- thermal diffusivity (549.76 K, 3000 kPa): 4.77e-08 ± 1.5e-09 m2/s
- speed of sound (549.87 K, 10000 kPa): 630.6 ± 7.6 m/s
- thermal diffusivity (549.96 K, 5000 kPa): 4.84e-08 ± 1.6e-09 m2/s
- thermal diffusivity (549.97 K, 7000 kPa): 4.9e-08 ± 1.6e-09 m2/s
- speed of sound (549.99 K, 7000 kPa): 596.7 ± 7.2 m/s
- thermal diffusivity (550.17 K, 10000 kPa): 4.99e-08 ± 1.6e-09 m2/s
- speed of sound (558.46 K, 3000 kPa): 529.8 ± 6.4 m/s
- speed of sound (559.93 K, 5000 kPa): 551.9 ± 6.7 m/s
- speed of sound (561 K, 10000 kPa): 607 ± 7.3 m/s
- speed of sound (562.07 K, 7000 kPa): 570.2 ± 6.9 m/s
- thermal diffusivity (565.49 K, 10000 kPa): 4.76e-08 ± 1.5e-09 m2/s
- thermal diffusivity (565.86 K, 5000 kPa): 4.61e-08 ± 1.5e-09 m2/s
- thermal diffusivity (565.87 K, 7000 kPa): 4.67e-08 ± 1.5e-09 m2/s
- thermal diffusivity (566.27 K, 3000 kPa): 4.55e-08 ± 1.5e-09 m2/s
